Results on 42 compounds are retold here after patent US9024044B2, “Heteroarylcarboxylic acid ester derivative” (Ajinomoto Co., Inc., priority 2012, dated 2015).

Structures can show the parent of a compound that is named as a salt.

By Ki is commonly meant a measure of affinity in units of concentration, obtained from inhibition or displacement.

In experiment [1] the target is recombinant human enteropeptidase (Homo sapiens (Human), UniProt P98073). As to the kind of experiment: Measurement of enteropeptidase inhibitory activity. Type of experiment: biochemical. The settings on record: substrate Gly-Asp-Asp-Asp-Asp-Lys-β-Naphtylamide, Tris-HCl pH 8.0, Dixon plot. The procedure: Measurement of Enteropeptidase Inhibitory Activity
Using a 96 well plate (#3915, Costar), a test compound (25 μL), 400 mM Tris-HCl buffer (pH 8.0, 25 μL) and 0.5 mg/mL fluorescence enzyme substrate (Gly-Asp-Asp-Asp-Asp-Lys-β-Naphtylamide, 25 μL) were mixed, and recombinant human enteropeptidase (R&D Systems, Inc., 25 μL) was added. Using a fluorescence plate reader fmax (Molecular Devices, Inc.), the reaction rate was measured from the time-course changes at excitation wavelength 320 nm and fluorescence wavelength 405 nm. The Ki value was calculated from the concentration of the test compound, reciprocal of reaction rate, and Km value of the enzyme substrate, and by using Dixon plot.

The target of the next experiment is human trypsin (Homo sapiens, UniProt P07477). The experiment is described as follows: Measurement of trypsin inhibitory activity. The format is biochemical. The settings on record: substrate Boc-Phe-Ser-Arg-AMC, Tris-HCl pH 8.0, Dixon plot. The procedure:
Measurement of Trypsin Inhibitory Activity
Using a 96 well plate (#3915, Costar), a test compound (25 μL) was mixed with 20 μM fluorescence enzyme substrate (Boc-Phe-Ser-Arg-AMC, 50 μL) mixed with 200 mM Tris-HCl buffer (pH 8.0), and human trypsin (Sigma, 25 μL) was added. Using a fluorescence plate reader fmax (Molecular Devices, Inc.), the reaction rate was measured from the time-course changes at excitation wavelength 355 nm and fluorescence wavelength 460 nm. The Ki value was calculated from the concentration of the test compound, reciprocal of reaction rate, and Km value of the enzyme substrate, and by using Dixon plot.

recombinant human enteropeptidase, sequence (P98073 whole entry): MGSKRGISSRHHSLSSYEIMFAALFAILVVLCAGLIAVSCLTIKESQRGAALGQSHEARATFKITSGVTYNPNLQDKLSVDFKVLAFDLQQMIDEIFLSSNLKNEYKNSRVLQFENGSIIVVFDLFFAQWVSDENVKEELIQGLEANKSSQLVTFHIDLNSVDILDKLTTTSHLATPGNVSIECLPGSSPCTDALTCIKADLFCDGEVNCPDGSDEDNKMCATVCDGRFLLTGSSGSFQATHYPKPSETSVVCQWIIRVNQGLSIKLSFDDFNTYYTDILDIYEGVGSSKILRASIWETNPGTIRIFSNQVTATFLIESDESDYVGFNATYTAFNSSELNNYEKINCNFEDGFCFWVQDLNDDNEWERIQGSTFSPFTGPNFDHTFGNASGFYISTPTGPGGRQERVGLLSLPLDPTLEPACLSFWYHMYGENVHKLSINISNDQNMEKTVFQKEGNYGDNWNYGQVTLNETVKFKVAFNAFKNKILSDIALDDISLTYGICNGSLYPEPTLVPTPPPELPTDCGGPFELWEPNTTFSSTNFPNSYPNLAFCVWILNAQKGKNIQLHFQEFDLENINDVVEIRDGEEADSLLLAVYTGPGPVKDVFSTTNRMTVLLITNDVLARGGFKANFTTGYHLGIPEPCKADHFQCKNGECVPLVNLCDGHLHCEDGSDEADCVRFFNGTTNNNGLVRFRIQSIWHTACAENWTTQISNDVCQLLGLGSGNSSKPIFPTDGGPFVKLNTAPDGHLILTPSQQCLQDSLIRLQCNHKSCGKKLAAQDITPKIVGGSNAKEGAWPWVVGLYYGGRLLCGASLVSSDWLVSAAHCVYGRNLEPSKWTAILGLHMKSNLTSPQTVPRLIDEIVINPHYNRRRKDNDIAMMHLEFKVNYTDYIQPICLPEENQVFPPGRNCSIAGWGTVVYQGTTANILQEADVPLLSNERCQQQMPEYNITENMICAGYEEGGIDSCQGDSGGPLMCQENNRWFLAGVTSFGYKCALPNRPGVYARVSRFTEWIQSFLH

On to `N=C(N)c1ccc(OC(=O)c2ccc(CC3(C(=O)N[C@@H](CC(=O)O)C(=O)O)CCC3)s2)c(F)c1` [Compound 1, N-[1{5-(4-amidino-2-fluorophenoxycarbonyl)thiophen-2-ylmethyl}-cyclobutylcarbonyl]-1-aspartic acid trifluoroacetic acid salt], for which the inhibition constant (Ki) in experiment [1] turned out to be 0.14 nM; on human trypsin, 0.61 nM.

As to `N=C(N)c1ccc(OC(=O)c2ccc(CC3(C(=O)N[C@@H](CC(=O)O)C(=O)O)CCCC3)s2)c(F)c1` [Compound 2, N-{1-[5-(4-amidino-2-fluorophenoxycarbonyl)thiophen-2-ylmethyl]-2-cyclopentylcarbonyl}-1-aspartic acid trifluoroacetic acid salt], the Ki in experiment [1] worked out at 0.73 nM; on human trypsin, 4.1 nM.

In the case of `CC(C)(Cc1ccc(C(=O)Oc2ccc(C(=N)N)cc2F)s1)C(=O)N[C@@H](CO)C(=O)O` [Compound 4], the figures for the Ki (in experiment [1]; on human trypsin) were 0.46 nM and 0.75 nM, respectively.

`C=CCN(CC(=O)O)C(=O)C(C)(C)Cc1ccc(C(=O)Oc2ccc(C(=N)N)cc2F)s1` [Compound 5]: the inhibition constant (Ki) in experiment [1] is 0.24 nM; on human trypsin it was 0.5 nM.

With `CC(C)(Cc1ccc(C(=O)Oc2ccc(C(=N)N)cc2F)s1)C(=O)NC(C)(C)C(=O)O` [Compound 6], the Ki is 0.69 nM in experiment [1] and 0.95 nM at human trypsin.

As to `CN(CC(=O)O)C(=O)C(C)(C)Cc1ccc(C(=O)Oc2ccc(C(=N)N)cc2F)s1` [Compound 7], the Ki was found to be 0.41 nM in experiment [1] and 1.33 nM at human trypsin.

`CC(C)(Cc1ccc(C(=O)Oc2ccc(C(=N)N)cc2F)s1)C(=O)N1CCC[C@H]1C(=O)O` [Compound 8]: the results for the Ki (in experiment [1]; at human trypsin) were 0.87 nM and 1.69 nM, respectively.

On to `CC(C)[C@H](NC(=O)C(C)(C)Cc1ccc(C(=O)Oc2ccc(C(=N)N)cc2F)s1)C(=O)O` [Compound 9, N-{3-[5-(4-amidino-2-fluoro-phenoxycarbonyl)thiophen-2-yl]-2,2-dimethylpropionyl}-1-valine hydrochloride], for which the Ki in experiment [1] turned out to be 0.79 nM; at human trypsin, 2.02 nM.

Regarding `CCC(CC)(Cc1ccc(C(=O)Oc2ccc(C(=N)N)cc2F)s1)C(=O)N[C@@H](CO)C(=O)O` [Compound 11, N-{3-[5-(4-amidino-2-fluoro-phenoxycarbonyl)thiophen-2-yl]-2,2-diethylpropionyl}-L-serine hydrochloride], the Ki turned out to be 0.41 nM in experiment [1] and 1.87 nM at human trypsin.

Turning to `CCC(CC)(Cc1ccc(C(=O)Oc2ccc(C(=N)N)cc2F)s1)C(=O)N[C@H](CO)C(=O)O` [Compound 12], the values for the inhibitory constant (Ki) (in experiment [1]; on human trypsin) were 0.94 nM and 1.78 nM, respectively.

`CCC(CC)(Cc1ccc(C(=O)Oc2ccc(C(=N)N)cc2F)s1)C(=O)NCCC(=O)O` [Compound 14]: the Ki amounted to 0.99 nM in experiment [1] and 2.5 nM on human trypsin.

Take `CCC(CC)(Cc1ccc(C(=O)Oc2ccc(C(=N)N)cc2F)s1)C(=O)N[C@H](C(=O)O)C(C)O` (stereo partly drawn) [Compound 15]: the Ki is 0.84 nM in experiment [1] and 1.74 nM on human trypsin.

In the case of `CCC(CC)(Cc1ccc(C(=O)Oc2ccc(C(=N)N)cc2F)s1)C(=O)N1CCC[C@H]1C(=O)O` [Compound 17], the inhibition constant Ki was 1.69 nM in experiment [1] and 6.38 nM at human trypsin.

As for `CCC(CC)(Cc1ccc(C(=O)Oc2ccc(C(=N)N)cc2F)s1)C(=O)O` [Compound 18, 3-[5-(4-amidino-2-fluorophenoxycarbonyl)thiophen-2-yl]-2,2-diethylpropanoic acid trifluoroacetic acid salt], the values for the Ki (in experiment [1]; on human trypsin) were 1.24 nM and 2.49 nM, respectively.

Turning to `CCC(CC)(Cc1ccc(C(=O)Oc2ccc(C(=N)N)cc2F)s1)C(=O)N[C@@H](CC(=O)O)C(=O)O` [Compound 19], the results for the inhibition constant Ki (in experiment [1]; on human trypsin) were 0.33 nM and 0.82 nM, respectively.

Turning to `CCCN(CC(=O)O)C(=O)C(CC)(CC)Cc1ccc(C(=O)Oc2ccc(C(=N)N)cc2F)s1` [Compound 20], the inhibition constant Ki in experiment [1] came to 2.61 nM; on human trypsin, 7.91 nM.

Consider `CCC(CC)(Cc1ccc(C(=O)Oc2ccc(C(=N)N)cc2F)s1)C(=O)N(C)CC(=O)O` [Compound 21, N-{3-[5-(4-amidino-2-fluoro-phenoxycarbonyl)thiophen-2-yl]-2,2-diethylpropionyl}-sarcosine hydrochloride], for which the values for the Ki (in experiment [1]; at human trypsin) were 0.88 nM and 1.76 nM, respectively.

Regarding `CCC(CC)(Cc1ccc(C(=O)Oc2ccc(C(=N)N)cc2F)s1)C(=O)N1CCC[C@@H]1C(=O)O` [Compound 22], the Ki worked out at 1 nM in experiment [1] and 3.57 nM at human trypsin.

On to `CCC(CC)(Cc1ccc(C(=O)Oc2ccc(C(=N)N)cc2F)s1)C(=O)N[C@H](CC(=O)O)C(=O)O` [Compound 25], for which the Ki in experiment [1] amounted to 0.26 nM; on human trypsin, 1.04 nM.

Take `CC(C)(Cc1ccc(C(=O)Oc2ccc(C(=N)N)cc2F)s1)C(=O)N1CCC(C(=O)O)CC1` [Compound 26]: the Ki in experiment [1] stood at 1.33 nM; on human trypsin, 3.1 nM.

For `CCC(CC)(Cc1ccc(C(=O)Oc2ccc(C(=N)N)cc2F)s1)C(=O)N[C@@H](C)C(=O)O` [Compound 27], the Ki in experiment [1] was 0.73 nM; at human trypsin it was 1.67 nM.

In the case of `CC(C)(Cc1ccc(C(=O)Oc2ccc(C(=N)N)cc2F)s1)C(=O)N1CC[C@@H](C(=O)O)C1` [Compound 33], the Ki was determined as 1.02 nM in experiment [1] and 2 nM at human trypsin.

For `CC(C)(Cc1ccc(C(=O)Oc2ccc(C(=N)N)cc2F)s1)C(=O)N[C@H](C(=O)O)C1CCCCC1` [Compound 35], the Ki in experiment [1] turned out to be 2.56 nM; on human trypsin, 3.04 nM.

Turning to `CC(C)(Cc1ccc(C(=O)Oc2ccc(C(=N)N)cc2F)s1)C(=O)N[C@@H](C(=O)O)C1CCCCC1` [Compound 36], the Ki is 4.7 nM in experiment [1] and 3.07 nM on human trypsin.

`CC(C)(Cc1ccc(C(=O)Oc2ccc(C(=N)N)cc2F)s1)C(=O)N[C@H](C(=O)O)c1ccccc1` [Compound 37]: the values for the inhibition constant Ki (in experiment [1]; on human trypsin) were 0.96 nM and 1.51 nM, respectively.

For the compound `CC(C)(Cc1ccc(C(=O)Oc2ccc(C(=N)N)cc2F)s1)C(=O)N[C@@H](C(=O)O)c1ccccc1` [Compound 38], the values for the Ki (in experiment [1]; on human trypsin) were 0.97 nM and 1.45 nM, respectively.

In the case of `CC(C)(Cc1ccc(C(=O)Oc2ccc(C(=N)N)cc2F)s1)C(=O)Nc1cccnc1` [Compound 39], the Ki was 7.56 nM in experiment [1] and 3.6 nM on human trypsin.

As for `CC(C)(Cc1ccc(C(=O)Oc2ccc(C(=N)N)cc2F)s1)C(=O)Nc1ccc[nH]c1=O` [Compound 40], the results for the Ki (in experiment [1]; on human trypsin) were 6.66 nM and 4.54 nM, respectively.

`CCC(CC)(Cc1ccc(C(=O)Oc2ccc(C(=N)N)cc2F)s1)C(=O)N[C@@H](CCC(N)=O)C(=O)O` [Compound 42]: the Ki in experiment [1] is 1.69 nM; at human trypsin, 3.88 nM.

In the case of `COc1ccc(NC(=O)C(C)(C)Cc2ccc(C(=O)Oc3ccc(C(=N)N)cc3F)s2)cn1` [Compound 45], the Ki in experiment [1] is 4.13 nM; at human trypsin, 3.36 nM.

Regarding `CC(C)(Cc1ccc(C(=O)Oc2ccc(C(=N)N)cc2F)s1)C(=O)N1CC(F)(F)C1` [Compound 46], the results for the Ki (in experiment [1]; on human trypsin) were 5.27 nM and 3.89 nM, respectively.

`CCC(CC)(Cc1ccc(C(=O)Oc2ccc(C(=N)N)cc2F)s1)C(=O)Nc1ccc(CC(=O)O)cc1` [Compound 48]: the Ki in experiment [1] stood at 2.41 nM; at human trypsin it was 3.35 nM.

As to `CC(C)(Cc1ccc(C(=O)Oc2ccc(C(=N)N)cc2F)s1)C(=O)N1CCc2ccc(C(=O)O)cc2C1` [Compound 50], the values for the inhibitory constant (Ki) (in experiment [1]; on human trypsin) were 3.46 nM and 3.49 nM, respectively.

Regarding `COc1ncccc1NC(=O)C(C)(C)Cc1ccc(C(=O)Oc2ccc(C(=N)N)cc2F)s1` [Compound 51], the Ki turned out to be 3.75 nM in experiment [1] and 1.87 nM on human trypsin.

As to `CCC(CC)(Cc1ccc(C(=O)Oc2ccc(C(=N)N)cc2F)s1)C(=O)NCCC[C@H](N)C(=O)O` [Compound 52], the Ki in experiment [1] was determined as 5.53 nM; on human trypsin, 5.78 nM.

On to `CC(C)(Cc1ccc(C(=O)Oc2ccc(C(=N)N)cc2F)s1)C(=O)N1C[C@@H]1C(=O)O` [Compound 54], for which the inhibition constant (Ki) was found to be 1.76 nM in experiment [1] and 1.53 nM at human trypsin.

As for `CC(C)(Cc1ccc(C(=O)Oc2ccc(C(=N)N)cc2F)s1)C(=O)NC(CCC(=O)O)(CCC(=O)O)CCC(=O)O` [Compound 58], the Ki is 0.71 nM in experiment [1] and 1.59 nM on human trypsin.

Regarding `CC(C)(Cc1ccc(C(=O)Oc2ccc(C(=N)N)cc2F)s1)C(=O)Nc1cc(C(=O)O)cc(C(=O)O)c1` [Compound 59], the Ki in experiment [1] is 0.31 nM; on human trypsin, 0.49 nM.

Turning to `CC(C)(Cc1ccc(C(=O)Oc2ccc(C(=N)N)cc2F)s1)C(=O)N1C[C@H]1C(=O)O` [Compound 61], the figures for the Ki (in experiment [1]; at human trypsin) were 1.13 nM and 0.96 nM, respectively.

For `CC(C)(Cc1ccc(C(=O)Oc2ccc(C(=N)N)cc2F)s1)C(=O)NCCc1nnn[nH]1` [Compound 64], the Ki stood at 0.53 nM in experiment [1] and 1.6 nM on human trypsin.

As for `CCC(CC)(Cc1ccc(C(=O)Oc2ccc(C(=N)N)cc2F)s1)C(=O)Nc1cc(C(=O)O)cc(C(=O)O)c1` [Compound 66], the Ki was determined as 0.71 nM in experiment [1] and 1.58 nM on human trypsin.

For `CCC(CC)(Cc1ccc(C(=O)Oc2ccc(C(=N)N)cc2F)s1)C(=O)Nc1cc(C(=O)O)cc(C(=O)OC)c1` [Compound 67], the Ki in experiment [1] was 3.73 nM; at human trypsin, 4.4 nM.
